Reference: patent publication US20240050428A1 (Cullgen (Shanghai), Inc., priority 2020, published 2024)
pIC50: −log10 of the molar value. Where two headings read alike, the source gives them in different places.

Tests used:
MOLM-13 cells = experiment: Cell viability assay (CellTiter-Glo) in MOLM-13 cells, alone or with gilteritinib; format: cell-based; settings: Homo sapiens, MOLM-13 cells, three days, CellTiter-Glo
MV4;11 cells = experiment: Cell viability assay (CellTiter-Glo) in MV4;11 cells, alone or with gilteritinib; format: cell-based; settings: Homo sapiens, MV4;11 cells, three days, CellTiter-Glo, read-out: MV4
[1] = MOLM-13, 72 h, compound alone (without gilteritinib), read-out: MOLM-13 IC50
[2] = MOLM-13, 72 h, compound with gilteritinib 20 nM, read-out: MOLM-13 IC50 gilteritinib
[3] = MV4-11, 72 h, compound alone (without gilteritinib), 11 IC50
[4] = MV4-11, 72 h, compound with gilteritinib 10 nM, 11 IC50 gilteritinib

pIC50 (MOLM-13 cells; [1])	pIC50 (MOLM-13 cells; [2])	pIC50 (MV4;11 cells; [3])	pIC50 (MV4;11 cells; [4])	SMILES	pIC50 (MOLM-13 cells; 72 h, compound alone (without gilteritinib), read-out: MOLM-13 IC50)	pIC50 (MOLM-13 cells; 72 h, compound with gilteritinib 20 nM, read-out: MOLM-13 IC50 gilteritinib)	pIC50 (MV4;11 cells; 72 h, compound alone (without gilteritinib), 11 IC50)	pIC50 (MV4;11 cells; 72 h, compound with gilteritinib 10 nM, 11 IC50 gilteritinib)
7.00 to 8.00	6.00 to 7.00	< 6.00	7.00 to 8.00	O=C1CCC(N2C(=O)c3ccc(NC[C@H]4C[C@H](n5cc(-c6cccc(NC7CCOCC7)n6)c(C6CC6)n5)C4)cc3C2=O)C(=O)N1 (stereo partly drawn) [GS-441, 5-(((trans-3-(3-cyclopropyl-4-(6-((tetrahydro-2H-pyran-4-yl)amino)pyridin-2-yl)-1H-pyrazol-1-yl)cyclobutyl)methyl)amino)-2-(2,6-dioxopiperidin-3-yl)isoindoline-1,3-dione]	–	–	–	–
7.00 to 8.00	> 8.00	> 8.00	> 8.00	O=C1CCC(N2C(=O)c3ccc(NC[C@H]4C[C@H](n5nc(C6CC6)c6ccccc65)C4)cc3C2=O)C(=O)N1 (stereo partly drawn) [GS-442, 5-(((trans-3-(3-cyclopropyl-1H-indazol-1-yl)cyclobutyl)methyl)amino)-2-(2,6-dioxopiperidin-3-yl)isoindoline-1,3-dione]	–	–	–	–
> 8.00	< 6.00	6.00 to 7.00	6.00 to 7.00	O=C1CCC(N2C(=O)c3ccc(NCCC[C@H]4C[C@H](n5cc(-c6ccc(Cl)cn6)cn5)C4)cc3C2=O)C(=O)N1 (stereo partly drawn) [GS-443, 5-((3-(trans-3-(4-(5-chloropyridin-2-yl)-1H-pyrazol-1-yl)cyclobutyl)propyl)amino)-2-(2,6-dioxopiperidin-3-yl)isoindoline-1,3-dione]	–	–	–	–
7.00 to 8.00	> 8.00	7.00 to 8.00	> 8.00	Cc1cccc(-c2cn([C@H]3C[C@H](CNc4ccc5c(c4)C(=O)N(C4CCC(=O)NC4=O)C5=O)C3)nc2C(F)F)n1 (stereo partly drawn) [GS-444, 5-(((trans-3-(3-(difluoromethyl)-4-(6-methylpyridin-2-yl)-1H-pyrazol-1-yl)cyclobutyl)methyl)amino)-2-(2,6-dioxopiperidin-3-yl)isoindoline-1,3-dione]	–	–	–	–
6.00 to 7.00	6.00 to 7.00	6.00 to 7.00	6.00 to 7.00	O=C1CCC(N2C(=O)c3ccc(NC[C@H]4C[C@H](n5cc(-c6cccc(N[C@H]7CC[C@@H](O)CC7)n6)c(C6CC6)n5)C4)cc3C2=O)C(=O)N1 (stereo partly drawn) [GS-445, 5-(((trans-3-(3-cyclopropyl-4-(6-((cis-4-hydroxycyclohexyl)amino)pyridin-2-yl)-1H-pyrazol-1-yl)cyclobutyl)methyl)amino)-2-(2,6-dioxopiperidin-3-yl)isoindoline-1,3-dione]	–	–	–	–
< 6.00	7.00 to 8.00	6.00 to 7.00	7.00 to 8.00	Cc1ccc(-c2cnn([C@H]3C[C@H](CCCNc4ccc5c(c4)C(=O)N(C4CCC(=O)NC4=O)C5=O)C3)c2)nc1 (stereo partly drawn) [GS-446, 2-(2,6-dioxopiperidin-3-yl)-5-((3-(trans-3-(4-(5-methylpyridin-2-yl)-1H-pyrazol-1-yl)cyclobutyl)propyl)amino)isoindoline-1,3-dione]	–	–	–	–
6.00 to 7.00	7.00 to 8.00	7.00 to 8.00	> 8.00	O=C1CCC(N2C(=O)c3ccc(NCCC[C@H]4C[C@H](n5cc(-c6cccc(C7CC7)n6)cn5)C4)cc3C2=O)C(=O)N1 (stereo partly drawn) [GS-447, 5-((3-(trans-3-(4-(6-cyclopropylpyridin-2-yl)-1H-pyrazol-1-yl)cyclobutyl)propyl)amino)-2-(2,6-dioxopiperidin-3-yl)isoindoline-1,3-dione]	–	–	–	–
< 6.00	6.00 to 7.00	6.00 to 7.00	7.00 to 8.00	O=C1CCC(N2C(=O)c3ccc(NC[C@H]4C[C@H](n5cc(N6CCCCC6)c(C6CC6)n5)C4)cc3C2=O)C(=O)N1 (stereo partly drawn) [GS-448, 5-(((trans-3-(3-cyclopropyl-4-(piperidin-1-yl)-1H-pyrazol-1-yl)cyclobutyl)methyl)amino)-2-(2,6-dioxopiperidin-3-yl)isoindoline-1,3-dione]	–	–	–	–
< 6.00	< 6.00	< 6.00	< 6.00	Cc1cccc(-c2cn([C@H]3C[C@H](CNc4ccc5c(c4)C(=O)N(C4CCC(=O)NC4=O)C5=O)C3)nc2C)n1 (stereo partly drawn) [GS-449, 2-(2,6-dioxopiperidin-3-yl)-5-(((trans-3-(3-methyl-4-(6-methylpyridin-2-yl)-1H-pyrazol-1-yl)cyclobutyl)methyl)amino)isoindoline-1,3-dione]	–	–	–	–
6.00 to 7.00	7.00 to 8.00	7.00 to 8.00	7.00 to 8.00	O=C1CCC(N2C(=O)c3ccc(NCCCCn4cc(-c5cnc6ccccc6n5)c(C5CC5)n4)cc3C2=O)C(=O)N1 (centres unmarked) [GS-450, 5-((4-(3-cyclopropyl-4-(quinoxalin-2-yl)-1H-pyrazol-1-yl)butyl)amino)-2-(2,6-dioxopiperidin-3-yl)isoindoline-1,3-dione]	–	–	–	–
6.00 to 7.00	7.00 to 8.00	7.00 to 8.00	7.00 to 8.00	O=C1CCC(N2C(=O)c3ccc(NCCC[C@H]4C[C@H](n5cc(-c6cccc(N7CCC7)n6)cn5)C4)cc3C2=O)C(=O)N1 (stereo partly drawn) [GS-451, 5-((3-(trans-3-(4-(6-(azetidin-1-yl)pyridin-2-yl)-1H-pyrazol-1-yl)cyclobutyl)propyl)amino)-2-(2,6-dioxopiperidin-3-yl)isoindoline-1,3-dione]	–	–	–	–
< 6.00	< 6.00	< 6.00	< 6.00	O=C1CCC(N2C(=O)c3ccc(NC[C@H]4C[C@H](n5cc(N6CCC(O)CC6)c(C6CC6)n5)C4)cc3C2=O)C(=O)N1 (stereo partly drawn) [GS-452, 5-(((trans-3-(3-cyclopropyl-4-(4-hydroxypiperidin-1-yl)-1H-pyrazol-1-yl)cyclobutyl)methyl)amino)-2-(2,6-dioxopiperidin-3-yl)isoindoline-1,3-dione]	–	–	–	–
6.00 to 7.00	7.00 to 8.00	7.00 to 8.00	7.00 to 8.00	CC(C)c1cccc(-c2cnn([C@H]3C[C@H](CCCNc4ccc5c(c4)C(=O)N(C4CCC(=O)NC4=O)C5=O)C3)c2)n1 (stereo partly drawn) [GS-453, 2-(2,6-dioxopiperidin-3-yl)-5-((3-(trans-3-(4-(6-isopropylpyridin-2-yl)-1H-pyrazol-1-yl)cyclobutyl)propyl)amino)isoindoline-1,3-dione]	–	–	–	–
–	–	–	–	CN1CCC(Nc2cccc(-c3cn([C@H]4C[C@H](CNc5ccc6c(c5)C(=O)N(C5CCC(=O)NC5=O)C6=O)C4)nc3C3CC3)n2)CC1 (stereo partly drawn) [GS-454, 5-(((trans-3-(3-cyclopropyl-4-(6-((1-methylpiperidin-4-yl)amino)pyridin-2-yl)-1H-pyrazol-1-yl)cyclobutyl)methyl)amino)-2-(2,6-dioxopiperidin-3-yl)isoindoline-1,3-dione]	< 6.00	6.00 to 7.00	< 6.00	6.00 to 7.00
< 6.00	< 6.00	< 6.00	< 6.00	O=C1CCC(N2C(=O)c3ccc(NC[C@H]4C[C@H](n5cc(N6CCNCC6)c(C6CC6)n5)C4)cc3C2=O)C(=O)N1 (stereo partly drawn) [GS-455, 5-(((trans-3-(3-cyclopropyl-4-(piperazin-1-yl)-1H-pyrazol-1-yl)cyclobutyl)methyl)amino)-2-(2,6-dioxopiperidin-3-yl)isoindoline-1,3-dione]	–	–	–	–
< 6.00	7.00 to 8.00	6.00 to 7.00	7.00 to 8.00	O=C1CCC(N2C(=O)c3ccc(NC[C@H]4C[C@H](n5cc(-c6ccc(Cl)cc6)c(C6CC6)n5)C4)cc3C2=O)C(=O)N1 (stereo partly drawn) [GS-456, 5-(((trans-3-(4-(4-chlorophenyl)-3-cyclopropyl-1H-pyrazol-1-yl)cyclobutyl)methyl)amino)-2-(2,6-dioxopiperidin-3-yl)isoindoline-1,3-dione]	–	–	–	–
6.00 to 7.00	7.00 to 8.00	7.00 to 8.00	7.00 to 8.00	O=C1CCC(N2C(=O)c3ccc(NC[C@H]4C[C@H](n5cc(-c6cccc(Cl)c6)c(C6CC6)n5)C4)cc3C2=O)C(=O)N1 (stereo partly drawn) [GS-457, 5-(((trans-3-(4-(3-chlorophenyl)-3-cyclopropyl-1H-pyrazol-1-yl)cyclobutyl)methyl)amino)-2-(2,6-dioxopiperidin-3-yl)isoindoline-1,3-dione]	–	–	–	–
7.00 to 8.00	> 8.00	7.00 to 8.00	> 8.00	O=C1CCC(N2C(=O)c3ccc(NC[C@H]4C[C@H](n5cc(-c6ccccc6Cl)c(C6CC6)n5)C4)cc3C2=O)C(=O)N1 (stereo partly drawn) [GS-458, 5-(((trans-3-(4-(2-chlorophenyl)-3-cyclopropyl-1H-pyrazol-1-yl)cyclobutyl)methyl)amino)-2-(2,6-dioxopiperidin-3-yl)isoindoline-1,3-dione]	–	–	–	–
< 6.00	< 6.00	< 6.00	< 6.00	CN1CCN(c2cn([C@H]3C[C@H](CNc4ccc5c(c4)C(=O)N(C4CCC(=O)NC4=O)C5=O)C3)nc2C2CC2)CC1 (stereo partly drawn) [GS-459, 5-(((trans-3-(3-cyclopropyl-4-(4-methylpiperazin-1-yl)-1H-pyrazol-1-yl)cyclobutyl)methyl)amino)-2-(2,6-dioxopiperidin-3-yl)isoindoline-1,3-dione]	–	–	–	–
< 6.00	< 6.00	< 6.00	< 6.00	CN1CCC(c2cn([C@H]3C[C@H](CNc4ccc5c(c4)C(=O)N(C4CCC(=O)NC4=O)C5=O)C3)nc2C2CC2)CC1 (stereo partly drawn) [GS-460, 5-(((trans-3-(3-cyclopropyl-4-(1-methylpiperidin-4-yl)-1H-pyrazol-1-yl)cyclobutyl)methyl)amino)-2-(2,6-dioxopiperidin-3-yl)isoindoline-1,3-dione]	–	–	–	–
